Test results published in patent US7662547B2, “Compositions and methods for detecting and treating HIV infections” (priority 2006, dated 2010).

Columns and labels:
T cells = assay: Cell cycle analysis of T cells; format: cell-based, human
HIV-1 [1] = assay: HIV-1 latent infection of resting CD4 T cells, viral replication assay (p24 ELISA) after anti-CD3/CD28 activation; format: cell-based, HIV-1NL4-3; conditions: for inhibition of HIV replication in resting T cells: 2 hours before infection
Description: Virus stocks of the HIV-1NL4-3 (Adachi et al. J Virol 59(2), 284-91 (1986)) were prepared by transfection of HeLa cells with cloned proviral DNA as described in Wu and Marsh (2001). Supernatant was harvested at 48 hours, and filtered through a 0.45 μm nitrocellulose membrane. Virus titer (TCID50) was measured by infection of a Rev-CEM indicator cell line which was constructed through stable integration of a Rev-dependent GFP expression lentiviral vector into CEM-SS. […] For infection of resting CD4 T cells, viruses were first titrated to determine minimal levels detectable by p24 ELISA in replication assays described below. Unless specified, for most replication assays, 10^3.5 to 10^4.5 TCID50 units of HIV-1 were used to infect 10^6 cells. For infection procedure, CD4 T cells were incubated with the virus for 2 hours, then washed twice with medium to remove unbound virus. Infected cells were resuspended into fresh RPMI 1604 medium supplemented with 10% heat-inactivated fetal bovine serum, penicillin (50 U/ml) and streptomycin (50 μg/ml) at a density of 10^6 per ml and incubated for 5 days without stimulation. Cells were activated at day 5 with anti-CD3/CD28 magnetic beads at 4 beads per cells. For viral replication assay, 10% of infected cells were taken at 1, 3, 5, 6, 7, 8, 9 days post infection. Cells were pelleted and the supernatant was saved for p24 ELISA. Levels of p24 in the supernatant were measured by using Coulter HIV-1 p24 Assay Kit (Beckman Coulter, Inc. Miami, Fla.). Plates were kinetically read using ELx808 automatic microplate reader (Bio-Tek Instruments, Inc. Winooski, Vt.) at 630 nm.
Resting CD4 T cells were treated with pertussis toxin (Sigma, St. Louis, Mo.) at a final concentration of 100 ng/ml for 2 hours, then infected with HIV-1. Following infection, cells were washed 2 to 3 times to remove cell-free virus and the inhibitor. Cells were treated with Jasplakinolide (Molecular Probes, Eugene, Oreg.) for 1 to 2 hours or Latrunculin A (Biomol, Plymouth Meeting, Pa.) for 5 minutes at various concentrations, washed twice with medium, then infected with HIV-1. Following infection, cells were washed twice to remove cell free virus. Cells were treated with 200 nM of Staurosporine (Biomol, Plymouth Meeting, Pa.) for 2 hours, then infected with HIV-1. Following infection, cells were washed twice to remove cell-free virus and the inhibitor.
Resting CD4 T cells were treated with S3 or Q104 for I to 2 hours, then infected with HIV-1. Following infection, cells were washed 2 to 3 times to remove cell-free virus and the peptides.
Effects of Jas on LFA-1 activation also were tested. Jas treated or untreated resting T cells were activated by anti-CD3/CD28 bead and stained with human ICAM-1/Fc chimera and analyzed by flow cytometer. The effects of Jas on IL-2 secretion also were measured. […] Cells were treated with Jas for 2 hours, washed, infected with HIV-1 for 5 days, then activated by anti-CD3/CD28 bead. […] Following infection, cellular DNA was PCR amplified for viral late DNA and β-actin pseudogene. Cells were pre-activated with PHA plus IL-2, then treated and infected as in FIG. 3A. […] CEM-SS cell were treated and infected as in FIG. 3A.

HIV-1 [2] = assay: PCR amplification of intracellular viral late DNA (viral entry); format: cell-based, HIV-1NL4-3; conditions: 120 nM
Description: To remove plasmid DNA contamination, viral stock was treated with Benzonase (Novagen, Madison, WI) (250 U/ml) at […] for 15 min before infection. Total cellular DNA were purified using SV total RNA isolation kit as recommended by the manufacture (Promega, Madison, WI). For detection of viral late reverse transcription products by PCR, forward primer HIV/Tat-Rev-5’(5′[…] 3′; SEQ ID NO: 6) and reverse primer LTR-gag2 (5′[…] 3′; SEQ ID NO: 7) were used. PCR was carried out in 1× Ambion PCR buffer, 125 μM dNTP, 50 pmol each primer, 1U SuperTaq Plus (Ambion Inc. Austin, TX) with 30 cycles at 94° C. for 20 seconds, 68° C. for 60 seconds. For relative quantification, the cellular-actin pseudogene were co-amplified using QuantumRNA-actin Internal Standards (Ambion Inc. Austin, TX), with a ratio from 5/5 to 1/9 for actin primer/competitor.
Thus, the effect of Jas on T cell activity was determined. FIG. 3A illustrates inhibition of HIV-1 latent infection by Jas. Effects of Jas on LFA-1 activation also were tested. Jas treated or untreated resting T cells were activated by anti-CD3/CD28 bead and stained with human ICAM-1/Fc chimera and analyzed by flow cytometer. The effects of Jas on IL-2 secretion also were measured. […] Cells were treated with Jas for 2 hours, washed, infected with HIV-1 for 5 days, then activated by anti-CD3/CD28 bead. […]

HIV-1 [3] = assay: HIV-1 infection of T cells pre-activated with PHA plus IL-2; format: cell-based, HIV-1NL4-3; conditions: similar Jas treatment (120 nM)
Description: Thus, the effect of Jas on T cell activity was determined. FIG. 3A illustrates inhibition of HIV-1 latent infection by Jas. Effects of Jas on LFA-1 activation also were tested. Jas treated or untreated resting T cells were activated by anti-CD3/CD28 bead and stained with human ICAM-1/Fc chimera and analyzed by flow cytometer. The effects of Jas on IL-2 secretion also were measured. […] Cells were treated with Jas for 2 hours, washed, infected with HIV-1 for 5 days, then activated by anti-CD3/CD28 bead. […] Following infection, cellular DNA was PCR amplified for viral late DNA and β-actin pseudogene. Cells were pre-activated with PHA plus IL-2, then treated and infected as in FIG. 3A. […] CEM-SS cell were treated and infected as in FIG. 3A. Effects of Jas on HIV-1 infection of resting T cells pre-stimulated with anti-CD4/CXCR4 bead (2 beads/cell) are shown in FIG. 3E. Pre-stimulated cells were treated and infected as in FIG. 3A.

What does the source list for `C/C1=C\[C@H](C)C[C@H](C)OC(=O)C[C@H](c2ccc(O)cc2)NC(=O)[C@@H](Cc2c(Br)[nH]c3ccccc23)N(C)C(=O)[C@H](C)NC(=O)[C@@H](C)C1` [Jas, Jasplakinolide]?
cell cycle arrest (T cells; 120 nM): no cell cycle arrest; cell cycle arrest (T cells; 3μM): arrested cells in S phase; inhibition of HIV replication in resting T cells (HIV-1 [1]; 24 nM): partial inhibition; inhibition of HIV replication in resting T cells (HIV-1 [1]; 120 nM): Complete inhibition; inhibition of HIV replication in resting T cells pre-stimulated with CD4/CXCR4 bead (HIV-1 [1]; 120 nM, pre-stimulation 2 beads/cell): completely abolished the inhibition; inhibition of HIV replication in resting T cells (HIV-1 [1]; 600 nM): Complete inhibition; intracellular viral DNA, treated vs untreated cells (HIV-1 [2]): did not detect any difference; inhibition of HIV replication in pre-activated T cells (HIV-1 [3]): no inhibition
